Structures are written as SMILES. Converted amounts (≈) assume the structure as drawn. The source made the active and inactive calls. The rule behind the calls is not given here.

What is called half-life is how long it takes for the measured level to halve. A higher half-life goes with slow decline. By MIC is commonly meant the least concentration at which growth counts as inhibited. High values mean a less susceptible organism, low ones a more susceptible organism. The term AUC(0-inf) denotes total exposure, with the tail of the curve extrapolated. For orientation: IC50 means the concentration that inhibits the measured activity by half. The low end stands for higher potency, the high end for lower potency. In general, bioavailability refers to the share of a dose that reaches the circulation, judged against a reference dose that is usually intravenous. Read a high bioavailability as good availability. One may read the CL/F as clearance divided by bioavailability, as obtained after extravascular dosing. Usually solubility stands for the concentration that dissolves in the medium under given conditions. A high value points to much dissolved substance. One may read the clearance as the rate of elimination divided by the concentration. Low values mean a low capacity for elimination, high ones a high capacity for elimination. As a reminder, the logP is a log measure of how a compound divides between an organic and an aqueous phase. The Tmax is the time from dosing to the highest level. As usually defined, the Cmax is the highest concentration seen after dosing.

In series [1] the test system is Staphylococcus aureus. Nature of the series: Antibacterial activity against methicillin-resistant Staphylococcus aureus ATCC 33591 in neutropenic Kunming mouse systemic infection model assessed as survival rate at 20 mg/kg, po administered 1 hr post inoculation measured on day 3. In kind it is functional.
Series [2] can be described thus: Half life in Sprague-Dawley rat blood at 10 mg/kg, iv by HPLC analysis. In kind it is ADME, organism-based.
Series [3] in a line: Half life in Sprague-Dawley rat blood at 10 mg/kg, po by HPLC analysis. Type of series: ADME, organism-based.
For a further series, the system named is Escherichia coli. Nature of the series: Antibacterial activity against Escherichia coli ATCC 25922 incubated for 18 hrs by broth microdilution method. In kind it is functional. Particulars: ATCC 25922, 18 h.
Series [4] is described as follows: AUC (0 to infinity) in Sprague-Dawley rat blood at 10 mg/kg, iv by HPLC analysis. In kind it is ADME, organism-based. Further details: dose 10 mg/kg, route intravenous, time infinity.
Series [5] can be described thus: Cytotoxicity against human L02 cells after 48 hrs by MTT assay. Type of series: cell-based. Particulars: L02, 48 h.
Series [6] deals with Staphylococcus aureus. Nature of the series: Antibacterial activity against methicillin-susceptible Staphylococcus aureus ATCC 6538 incubated for 18 hrs by broth microdilution method. Type of series: functional. Particulars: ATCC 6538, 18 h.
Series [7] relates to Staphylococcus aureus. Put plainly: Antibacterial activity against methicillin-resistant Staphylococcus aureus ATCC 43300 incubated for 18 hrs by broth microdilution method. Type of series: functional. Particulars: ATCC 43300, 18 h.
The next series has as its system Pseudomonas aeruginosa. Nature of the series: Antibacterial activity against Pseudomonas aeruginosa ATCC 27853 incubated for 18 hrs by broth microdilution method. In kind it is functional. Particulars: ATCC 27853, 18 h. (Broth dilution looks for growth in wells or tubes with falling amounts of substance.)
A short description of series [8]: Oral bioavailability in Sprague-Dawley rat blood at 10 mg/kg by HPLC analysis. Type of series: ADME, organism-based.
Series [9] has as its system Staphylococcus aureus. Nature of the series: Antibacterial activity against methicillin-susceptible Staphylococcus aureus ATCC 25923 incubated for 18 hrs by broth microdilution method. In kind it is functional. Particulars: ATCC 25923, 18 h.
In series [10] the test system is Staphylococcus aureus. Put plainly: Antibacterial activity against methicillin-resistant Staphylococcus aureus ATCC 33591 in neutropenic Kunming mouse systemic infection model assessed as survival rate at 10 mg/kg, po administered 1 hr post inoculation measured after 1 week. In kind it is functional, organism-based.
Series [11] can be described thus: Clearance in Sprague-Dawley rat blood at 10 mg/kg, po by HPLC analysis. In kind it is ADME, organism-based.
Series [12] is described as follows: Solubility of compound in distilled water after 24 hrs by HPLC analysis. Type of series: physicochemical.
A short description of series [13]: Clearance in Sprague-Dawley rat blood at 10 mg/kg, iv by HPLC analysis. In kind it is ADME, organism-based.
Series [14] in a line: Cytotoxicity against HEK293A cells after 48 hrs by MTT assay. In kind it is cell-based. The settings on record: Homo sapiens, HEK293-A. (Formazan colour is commonly taken as a measure of viable cells.)
Series [15] deals with Staphylococcus aureus. Nature of the series: Antibacterial activity against methicillin-resistant Staphylococcus aureus ATCC 33591 in neutropenic Kunming mouse systemic infection model assessed as survival rate at 20 mg/kg, po administered 1 hr post inoculation measured on day 1 to 2. Type of series: functional. The settings on record: ATCC 33591, po.
The subject of series [16] is Staphylococcus aureus. Nature of the series: Antibacterial activity against methicillin-resistant Staphylococcus aureus ATCC 33591 incubated for 18 hrs by broth microdilution method. In kind it is functional. Particulars: ATCC 33591, 18 h.
Series [17] in a line: Octanol/water partition coefficient, log P of the compound by HPLC assay. In kind it is physicochemical.
A short description of series [18]: AUC (0 to infinity) in Sprague-Dawley rat blood at 10 mg/kg, po by HPLC analysis. Type of series: ADME, organism-based. Further details: dose 10 mg/kg, route oral, time infinity.
The nature of series [19]: Tmax in Sprague-Dawley rat blood at 10 mg/kg, po by HPLC analysis. Type of series: ADME, organism-based.
Series [20] can be described thus: Cmax in Sprague-Dawley rat blood at 10 mg/kg, iv by HPLC analysis. Type of series: ADME, organism-based. Details: dose 10 mg/kg, route intravenous.
Series [21] relates to Staphylococcus aureus. Put plainly: Antibacterial activity against methicillin-susceptible Staphylococcus aureus CMCC 2603 incubated for 18 hrs by broth microdilution method. Type of series: functional. The settings on record: CMCC 2603, 18 h.
Series [22] can be described thus: Cmax in Sprague-Dawley rat blood at 10 mg/kg, po by HPLC analysis. In kind it is ADME, organism-based. Further details: dose 10 mg/kg, route oral.
The nature of series [23]: Tmax in Sprague-Dawley rat blood at 10 mg/kg, iv by HPLC analysis. In kind it is ADME, organism-based.
Series [24] concerns Staphylococcus aureus. Nature of the series: Antibacterial activity against methicillin-susceptible Staphylococcus aureus ATCC 29213 incubated for 18 hrs by broth microdilution method. Type of series: functional. The settings on record: ATCC 29213, 18 h.
Series [25] concerns Enterococcus. Nature of the series: Antibacterial activity against Enterococcus. Type of series: functional.
In the next series the test system is Streptococcus pneumoniae. Put plainly: Antibacterial activity against Penicillin-resistant Streptococcus pneumoniae. Type of series: functional.
Series [26] concerns Enterococcus. Nature of the series: Antibacterial activity against vancomycin-resistant Enterococcus. In kind it is functional.
The subject of series [27] is Staphylococcus aureus. Nature of the series: Antibacterial activity against methicillin-resistant Staphylococcus aureus. In kind it is functional.

For the molecule `CC(=O)NC[C@H]1CN(c2ccc(-n3cc(-c4ccccn4)cn3)c(F)c2)C(=O)O1` [listing 1 of 2 here], the outcome with Staphylococcus aureus [1] was Active.

Consider `O=C(NC[C@H]1CN(c2ccc(-n3cc(-c4ccccn4)cn3)c(F)c2)C(=O)O1)C(F)F`, for which the half-life is 324 min in series [2] and 532 min in series [3]. For the same molecule, the MIC in the series on Escherichia coli is over 32 µg/mL; against Staphylococcus aureus [6] it was 2 µg/mL (≈ 4.64 µM); in the series with Staphylococcus aureus [7], 2 µg/mL (≈ 4.64 µM); in the series with Pseudomonas aeruginosa, over 32 µg/mL; with Staphylococcus aureus [9] it was 2 µg/mL (≈ 4.64 µM); against Staphylococcus aureus [16], 2 µg/mL (≈ 4.64 µM). The MIC against Staphylococcus aureus [21] and against Staphylococcus aureus [24] was 2 µg/mL (≈ 4.64 µM) throughout. In addition, the results for the AUC(0-inf) in series [4] and in series [18] were 57.6 µg·h/mL and 51.6 µg·h/mL, respectively. For the same molecule, the IC50 in series [5] was over 400 µg/mL; in series [14] it was 167 µg/mL (≈ 387 µM). Further, in series [8], the bioavailability worked out at 89.6%. Moreover, the result with Staphylococcus aureus [10] was Active. Further, the CL/F in series [11] was 3.33 mL/min/kg. The molecule also yielded a solubility at 24 h in series [12] of 29.9 µM (≈ 12.9 µg/mL). In [13], the clearance is 3 mL/min/kg. Also, the survival at 20 mg/kg turned out to be 40% in the series on Staphylococcus aureus [15] and 30% with Staphylococcus aureus [1] (ATCC 33591, po). Moreover, the logP in [17] came to 1.9. Further, the Tmax in series [19] stood at 1.5 h; in series [23] it was 6.6 min. The results for the Cmax in series [20] and in series [22] were 15000 ng/mL and 4360 ng/mL, respectively.

Take `CC(=O)NC[C@H]1CN(c2ccc(-n3cc(-c4ccccn4)cn3)c(F)c2)C(=O)O1` [listing 2 of 2 here]: the half-life in series [2] was 52.8 min; in series [3], 785 min. For the same molecule, the MIC in the series with Escherichia coli was over 32 µg/mL; in the series with Staphylococcus aureus [6] it was 2 µg/mL (≈ 5.06 µM); against Staphylococcus aureus [7], 2 µg/mL (≈ 5.06 µM); with Pseudomonas aeruginosa it was over 32 µg/mL; against Enterococcus [25], 0.25 µg/mL (≈ 0.632 µM); against Staphylococcus aureus [9] it was 2 µg/mL (≈ 5.06 µM). For the same molecule, the MIC against Staphylococcus aureus [16] worked out at 2 µg/mL (≈ 5.06 µM); with Streptococcus pneumoniae, 0.25 µg/mL (≈ 0.632 µM); against Staphylococcus aureus [21], 2 µg/mL (≈ 5.06 µM); in the series with Enterococcus [26] it was 0.25 µg/mL (≈ 0.632 µM); with Staphylococcus aureus [24] it was 2 µg/mL (≈ 5.06 µM); with Staphylococcus aureus [27], 0.25 µg/mL (≈ 0.632 µM). The AUC(0-inf) in series [4] was 205 µg·h/mL; in series [18], 157 µg·h/mL. Further, the results for the IC50 in series [5] and in series [14] were 261 µg/mL (≈ 660 µM) and 174 µg/mL (≈ 440 µM), respectively. Also, the bioavailability in [8] worked out at 76.7%. In series [11], this molecule gave a CL/F of 1.5 mL/min/kg. For the same molecule, the solubility at 24 h in series [12] was determined as 134 µM (≈ 52.8 µg/mL). This molecule also gave a clearance in series [13] of 0.833 mL/min/kg. For the same molecule, in the series with Staphylococcus aureus [15], the survival at 20 mg/kg is 30%. The molecule also returned a logP in [17] of 1.35. The Tmax in series [19] was 11 h; in [23], 6.6 min. Besides, in series [22], the concentration peaked (Cmax) at 5770 ng/mL.

Consider `CC(=O)NC[C@H]1CN(c2ccc(N3CCOCC3)c(F)c2)C(=O)O1` [LINEZOLID], for which the MIC with Escherichia coli and with Pseudomonas aeruginosa was over 32 µg/mL in each case. The results for the 50% inhibitory concentration (IC50) in series [5] and in series [14] were 213 µg/mL (≈ 631 µM) and 215 µg/mL (≈ 637 µM), respectively. In the series with Staphylococcus aureus [15], the survival at 20 mg/kg was found to be 30%. In addition, in the series on Staphylococcus aureus [1], the outcome was Active.

Take `CC(=O)NC[C@H]1CN(c2ccc(-n3cc(-c4ccccn4)cn3)c(F)c2)C(=O)O1.Cl`: the MIC in the series with Enterococcus [25], against Streptococcus pneumoniae, in the series with Enterococcus [26] and against Staphylococcus aureus [27] was 0.25 µg/mL each time.

(Values after ChEMBL document CHEMBL3739261, “Synthesis and antibacterial activity evaluation of C-5 side chain modified analogues of FYL-66, a potential agent against methicillin-resistant Staphylococcus aureus” (Medchemcomm, 2015).)
